According to the NIST ThermoML archive (doi:10.1016/j.jct.2006.05.008):

Assay: molar heat capacity at constant pressure
Details: 101.33 kPa

CCC[n+]1ccn(C)c1.[Br-] [1-methyl-3-propylimidazolium bromide]
Details	molar heat capacity at constant pressure [J/K/mol]
199.31 K, Crystal, Vacuum adiabatic calorimetry	164.75
199.46 K, Glass, Small (less than 1 g) adiabatic calorimetry	175.22
200.05 K, Glass, Small (less than 1 g) adiabatic calorimetry	176.21
200.67 K, Crystal, Vacuum adiabatic calorimetry	166
200.97 K, Metastable crystal, Small (less than 1 g) adiabatic calorimetry	168.83
201.03 K, Crystal, Vacuum adiabatic calorimetry	166.26
201.36 K, Crystal, Vacuum adiabatic calorimetry	166.53
202.03 K, Crystal, Vacuum adiabatic calorimetry	167.06
202.22 K, Glass, Small (less than 1 g) adiabatic calorimetry	178.79
202.47 K, Glass, Small (less than 1 g) adiabatic calorimetry	180.24
203.09 K, Crystal, Vacuum adiabatic calorimetry	167.78
203.39 K, Crystal, Vacuum adiabatic calorimetry	168.1
203.43 K, Crystal, Vacuum adiabatic calorimetry	167.91
203.43 K, Metastable crystal, Small (less than 1 g) adiabatic calorimetry	170.24
204.75 K, Crystal, Vacuum adiabatic calorimetry	169.11
204.84 K, Glass, Small (less than 1 g) adiabatic calorimetry	187.91
204.96 K, Glass, Small (less than 1 g) adiabatic calorimetry	184.36
205.16 K, Crystal, Vacuum adiabatic calorimetry	169.18
205.49 K, Crystal, Vacuum adiabatic calorimetry	169.21
205.88 K, Metastable crystal, Small (less than 1 g) adiabatic calorimetry	171.68
206.12 K, Crystal, Vacuum adiabatic calorimetry	170
207.12 K, Glass, Small (less than 1 g) adiabatic calorimetry	199.89
207.47 K, Crystal, Vacuum adiabatic calorimetry	170.79
207.56 K, Crystal, Vacuum adiabatic calorimetry	170.75
207.61 K, Glass, Small (less than 1 g) adiabatic calorimetry	196
208.34 K, Metastable crystal, Small (less than 1 g) adiabatic calorimetry	173.15
208.84 K, Crystal, Vacuum adiabatic calorimetry	171.68
209.31 K, Glass, Small (less than 1 g) adiabatic calorimetry	214.39
209.63 K, Crystal, Vacuum adiabatic calorimetry	172.23
210.02 K, Glass, Small (less than 1 g) adiabatic calorimetry	225.97
210.2 K, Crystal, Vacuum adiabatic calorimetry	172.56
210.79 K, Metastable crystal, Small (less than 1 g) adiabatic calorimetry	174.52
211.34 K, Glass, Small (less than 1 g) adiabatic calorimetry	239.57
211.57 K, Crystal, Vacuum adiabatic calorimetry	173.4
211.7 K, Crystal, Vacuum adiabatic calorimetry	173.55
212.2 K, Liquid, Small (less than 1 g) adiabatic calorimetry	259.73
212.93 K, Crystal, Vacuum adiabatic calorimetry	174.3
213.23 K, Metastable crystal, Small (less than 1 g) adiabatic calorimetry	176.24
213.27 K, Glass, Small (less than 1 g) adiabatic calorimetry	257.87
213.77 K, Crystal, Vacuum adiabatic calorimetry	174.86
214.3 K, Crystal, Vacuum adiabatic calorimetry	175.3
214.46 K, Liquid, Small (less than 1 g) adiabatic calorimetry	259.1
215.25 K, Liquid, Small (less than 1 g) adiabatic calorimetry	259.12
215.66 K, Crystal, Vacuum adiabatic calorimetry	176.2
215.67 K, Metastable crystal, Small (less than 1 g) adiabatic calorimetry	177.87
215.84 K, Crystal, Vacuum adiabatic calorimetry	176.33
216.73 K, Liquid, Small (less than 1 g) adiabatic calorimetry	260.04
217.03 K, Crystal, Vacuum adiabatic calorimetry	177.11
217.09 K, Liquid, Small (less than 1 g) adiabatic calorimetry	259.63
217.24 K, Liquid, Small (less than 1 g) adiabatic calorimetry	260
217.9 K, Liquid, Small (less than 1 g) adiabatic calorimetry	259.51
217.92 K, Crystal, Vacuum adiabatic calorimetry	177.82
218.11 K, Metastable crystal, Small (less than 1 g) adiabatic calorimetry	179.69
218.4 K, Crystal, Vacuum adiabatic calorimetry	178.04
219.01 K, Liquid, Small (less than 1 g) adiabatic calorimetry	260.43
219.18 K, Liquid, Small (less than 1 g) adiabatic calorimetry	259.88
219.24 K, Liquid, Small (less than 1 g) adiabatic calorimetry	260.35
219.77 K, Crystal, Vacuum adiabatic calorimetry	179.06
219.98 K, Liquid, Small (less than 1 g) adiabatic calorimetry	259.88
219.99 K, Crystal, Vacuum adiabatic calorimetry	179.17
220.54 K, Metastable crystal, Small (less than 1 g) adiabatic calorimetry	181.19
221.14 K, Crystal, Vacuum adiabatic calorimetry	179.92
221.23 K, Liquid, Small (less than 1 g) adiabatic calorimetry	260.68
221.29 K, Liquid, Small (less than 1 g) adiabatic calorimetry	260.8
222.07 K, Crystal, Vacuum adiabatic calorimetry	180.63
222.07 K, Liquid, Small (less than 1 g) adiabatic calorimetry	260.23
222.51 K, Crystal, Vacuum adiabatic calorimetry	180.9
222.97 K, Metastable crystal, Small (less than 1 g) adiabatic calorimetry	182.89
223.23 K, Liquid, Small (less than 1 g) adiabatic calorimetry	261
223.57 K, Liquid, Small (less than 1 g) adiabatic calorimetry	261.15
223.88 K, Crystal, Vacuum adiabatic calorimetry	181.95
224.15 K, Crystal, Vacuum adiabatic calorimetry	182.18
224.16 K, Liquid, Small (less than 1 g) adiabatic calorimetry	260.59
225.24 K, Liquid, Small (less than 1 g) adiabatic calorimetry	261.29
225.25 K, Crystal, Vacuum adiabatic calorimetry	182.95
225.39 K, Metastable crystal, Small (less than 1 g) adiabatic calorimetry	184.41
225.86 K, Liquid, Small (less than 1 g) adiabatic calorimetry	261.58
226.23 K, Crystal, Vacuum adiabatic calorimetry	183.69
226.24 K, Liquid, Small (less than 1 g) adiabatic calorimetry	260.96
226.63 K, Crystal, Vacuum adiabatic calorimetry	183.97
227.24 K, Liquid, Small (less than 1 g) adiabatic calorimetry	261.74
227.8 K, Metastable crystal, Small (less than 1 g) adiabatic calorimetry	186.11
228 K, Crystal, Vacuum adiabatic calorimetry	184.96
228.15 K, Liquid, Small (less than 1 g) adiabatic calorimetry	262.01
228.31 K, Crystal, Vacuum adiabatic calorimetry	185.39
228.33 K, Liquid, Small (less than 1 g) adiabatic calorimetry	261.35
229.25 K, Liquid, Small (less than 1 g) adiabatic calorimetry	262.21
229.38 K, Crystal, Vacuum adiabatic calorimetry	186.04
230.21 K, Metastable crystal, Small (less than 1 g) adiabatic calorimetry	187.89
230.39 K, Crystal, Vacuum adiabatic calorimetry	186.96
230.42 K, Liquid, Small (less than 1 g) adiabatic calorimetry	261.8
230.44 K, Liquid, Small (less than 1 g) adiabatic calorimetry	262.44
230.75 K, Crystal, Vacuum adiabatic calorimetry	187.19
231.26 K, Liquid, Small (less than 1 g) adiabatic calorimetry	262.65
232.13 K, Crystal, Vacuum adiabatic calorimetry	188.21
232.47 K, Crystal, Vacuum adiabatic calorimetry	188.55
232.51 K, Liquid, Small (less than 1 g) adiabatic calorimetry	262.24
232.62 K, Metastable crystal, Small (less than 1 g) adiabatic calorimetry	189.5
232.74 K, Liquid, Small (less than 1 g) adiabatic calorimetry	263.08
233.01 K, Crystal, Vacuum adiabatic calorimetry	189.36
233.27 K, Liquid, Small (less than 1 g) adiabatic calorimetry	263.01
233.5 K, Crystal, Vacuum adiabatic calorimetry	189.25
234.55 K, Crystal, Vacuum adiabatic calorimetry	190.14
234.61 K, Liquid, Small (less than 1 g) adiabatic calorimetry	262.58
234.88 K, Crystal, Vacuum adiabatic calorimetry	190.37
235.03 K, Liquid, Small (less than 1 g) adiabatic calorimetry	263.49
235.28 K, Liquid, Small (less than 1 g) adiabatic calorimetry	263.42
235.72 K, Metastable crystal, Small (less than 1 g) adiabatic calorimetry	191.63
236.26 K, Crystal, Vacuum adiabatic calorimetry	191.4
236.63 K, Crystal, Vacuum adiabatic calorimetry	191.86
236.7 K, Liquid, Small (less than 1 g) adiabatic calorimetry	263.12
237.29 K, Liquid, Small (less than 1 g) adiabatic calorimetry	263.79
237.33 K, Liquid, Small (less than 1 g) adiabatic calorimetry	263.86
237.63 K, Crystal, Vacuum adiabatic calorimetry	192.56
238.14 K, Metastable crystal, Small (less than 1 g) adiabatic calorimetry	193.62
238.71 K, Crystal, Vacuum adiabatic calorimetry	193.49
238.79 K, Liquid, Small (less than 1 g) adiabatic calorimetry	264.33
239.01 K, Crystal, Vacuum adiabatic calorimetry	193.7
239.3 K, Liquid, Small (less than 1 g) adiabatic calorimetry	264.2
239.63 K, Liquid, Small (less than 1 g) adiabatic calorimetry	264.39
240.21 K, Liquid, Small (less than 1 g) adiabatic calorimetry	263.92
240.38 K, Crystal, Vacuum adiabatic calorimetry	194.84
240.53 K, Metastable crystal, Small (less than 1 g) adiabatic calorimetry	195.14
240.78 K, Crystal, Vacuum adiabatic calorimetry	195.37
240.89 K, Liquid, Small (less than 1 g) adiabatic calorimetry	264.51
241.32 K, Liquid, Small (less than 1 g) adiabatic calorimetry	264.76
241.76 K, Crystal, Vacuum adiabatic calorimetry	196.04
241.93 K, Liquid, Small (less than 1 g) adiabatic calorimetry	265.02
242.32 K, Liquid, Small (less than 1 g) adiabatic calorimetry	264.51
242.39 K, Crystal, Vacuum adiabatic calorimetry	197.23
242.86 K, Crystal, Vacuum adiabatic calorimetry	197.07
242.91 K, Metastable crystal, Small (less than 1 g) adiabatic calorimetry	197.2
243.14 K, Crystal, Vacuum adiabatic calorimetry	197.19
243.34 K, Liquid, Small (less than 1 g) adiabatic calorimetry	265.19
244.23 K, Liquid, Small (less than 1 g) adiabatic calorimetry	265.58
